Reference: paper PMC8287028 (Frontiers in Veterinary Science, 2021)
Where “and” joins values, the source holds several entries; their conditions need not be identical. Equal values may be shown once. Read-outs that look alike come from different tables or passages of the source.

Experiments:
healthy mixed-breed dogs [1] = assay: Serum biochemistry profile before and after apixaban; type: in vivo, dog; design: TP / Bicarbonate: unit not given beside the values; Calcium / Magnesium / Globulin / ALT / AST / GGT / T.bili / Sodium / BUN / Creatinine: unit not given here; settings: for ALT / AST / Albumin / BUN / Bicarbonate / Calcium / Creatinine / GGT / Globulin / Magnesium / Sodium / T.bili / TP / Amylase / Cholesterol / Glucose / Phosphate / Potassium / TIBC: individual dogs (Dog 1-6); for Amylase: in U/L (unit assumed); for TIBC: in µg/dL (unit assumed)
Procedure: Catheters were flushed with 0.9% saline, without heparin.
Pairwise comparisons between continuous variables were conducted with Wilcoxon matched-pairs signed rank test, while comparisons of more than two groups were conducted using the Friedman test with Dunn's post-hoc adjustment. […] Comparisons of pharmacodynamic variables between baseline values and those at discrete sampling intervals were performed using the Friedman test with Dunn's post-hoc correction for multiple comparisons. […] Alpha was set at 0.05. Statistical analyses were performed using commercial software (Prism 9, GraphPad, La Jolla, CA).

[2] = horses, cited from earlier work
[3] = target: T1, bovine activated Factor X (Bos taurus, UniProt P00743); assay: Apixaban-calibrated anti-Xa activity (aXa) chromogenic bioassay on plasma of dosed dogs; type: in vivo
T1 construct: purchased Diagnostica Stago STA Liquid anti-Xa
Procedure: Coagulation assays were performed on platelet-poor, citrated plasma samples by a reference laboratory (Comparative Coagulation Laboratory, Animal Health Diagnostic Center, Ithaca, NY). […] The assay is configured with a bovine activated Factor X reagent that is added in excess to the test plasma and a chromogenic substrate of Factor Xa (STA Liquid anti-Xa, Diagnostica Stago). Residual, uninhibited Factor Xa cleaves the chromogenic substrate such that the inverse of the color change in the reaction mixture is proportional to the drug concentration in the test plasma. […] A mechanical endpoint method (STA Compact, Diagnostica Stago) and human coagulation reagents were used to measure prothrombin time (Thromboplastin LI, Helena Diagnostics, Beaumont, TX) and activated partial thromboplastin time (Dade Actin FS, Dade Behring, Newark, DE). […] Tissue-factor (1:50,000 final dilution) activated TEG was performed using standard equipment (TEG-5000, Haemonetics, Braintree, MA) as previously reported ([35]), with assays conducted per established guidelines ([36]), with a modification to eliminate the rest time to facilitate rapid sample processing. Thromboelastography assays were conducted by experienced operators using four TEG channels and tracings terminated after maximum amplitude was established. Four values were extracted from TEG tracings: reaction time (R-time), clot formation time (K-time), clot formation angle (alpha), and maximum amplitude (MA).
Pairwise comparisons between continuous variables were conducted with Wilcoxon matched-pairs signed rank test, while comparisons of more than two groups were conducted using the Friedman test with Dunn's post-hoc adjustment. Specifically, the Wilcoxon matched-pairs signed rank tests were used to compare the complete blood count and serum chemistry values between baseline and the +24 h time point. Comparisons of pharmacodynamic variables between baseline values and those at discrete sampling intervals were performed using the Friedman test with Dunn's post-hoc correction for multiple comparisons. […] Alpha was set at 0.05. Statistical analyses were performed using commercial software (Prism 9, GraphPad, La Jolla, CA).

[4] = cited from earlier work
prothrombin time = settings: in vitro, dog plasma fortified with apixaban; cited from earlier work
[5] = cats, cited from earlier work
healthy mixed-breed dogs [6] = assay: Monitoring for adverse reactions after IV and PO apixaban; settings: study period
Source text: Additionally, drug metabolism might be different in beagles compared with mixed-breed dogs ([33], [34]). […] The study was approved by the Institutional Animal Care and Use Committee (IACUC) at Cornell University College of Veterinary Medicine (Protocol #2019-0099). All dogs were housed at Cornell University and cared for by licensed veterinarians and technicians according to established protocols. All dogs were permanently adopted into private homes after study completion.
On the days of drug administration, 5 Fr × 25 cm trilumen wire-guided catheters (Mila International, Erlanger, KY) were aseptically placed in external jugular veins by modified-Seldinger technique to facilitate atraumatic, repeat blood sample collection. Dogs were sedated with IV butorphanol 0.2 mg/kg and dexmedetomidine 5 μg/kg (Zoetis, Parsippany, NJ) to facilitate catheter placement. Jugular catheters were secured using 3-0 nylon sutures, protected with sterile bandages, and flushed with 0.9% saline (no heparin was used). […] Dogs were closely monitored for adverse reactions throughout the sample collection period. […] After each sample collection, one citrate anticoagulated whole blood sample was analyzed using thromboelastography (TEG), while the second citrate sample was centrifuged (1,370 g, 10 min, 20°C), the plasma separated, split into two aliquots and then frozen at −80°C pending batch analyses.

[7] = +24h after IV apixaban, in mg/dL (unit assumed)
[8] = +30h after PO apixaban, in mg/dL (unit assumed)
[9] = +30h after PO apixaban, in mmol/L (unit assumed)

T1 sequence (P00743 234-492 limits assumed): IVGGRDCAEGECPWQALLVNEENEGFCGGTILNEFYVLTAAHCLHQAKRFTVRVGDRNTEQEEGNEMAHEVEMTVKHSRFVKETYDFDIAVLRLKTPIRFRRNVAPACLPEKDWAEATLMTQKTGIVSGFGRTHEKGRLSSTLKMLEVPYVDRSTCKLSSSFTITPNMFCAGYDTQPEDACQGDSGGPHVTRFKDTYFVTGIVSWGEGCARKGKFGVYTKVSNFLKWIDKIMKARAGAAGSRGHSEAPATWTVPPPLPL
T1 sequence (P00743 41-180 limits assumed): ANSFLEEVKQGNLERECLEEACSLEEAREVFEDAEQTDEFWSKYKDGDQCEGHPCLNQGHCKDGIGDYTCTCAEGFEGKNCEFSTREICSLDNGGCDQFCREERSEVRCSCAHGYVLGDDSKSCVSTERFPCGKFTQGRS

## COc1ccc(-n2nc(C(N)=O)c3c2C(=O)N(c2ccc(N4CCCCC4=O)cc2)CC3)cc1 [apixaban]
Healthy mixed-breed dogs [1]; +24h after IV apixaban
  ALT: 45 (2×) and 114 and 30 (2×) and 86
  AST: 34 and 44 and 21 and 32 (2×) and 31
  Albumin: 3.9 and 3.4 (2×) and 3.5 and 3.7 and 3.8
  BUN: 16 (2×) and 19 and 30 and 20 and 21
  Bicarbonate: 23 and 18 (2×) and 21 and 19 (2×)
  Calcium: 10.0 (2×) and 8.9 and 10.2 and 9.9 and 9.6
  Creatinine: 0.8 and 0.7 (2×) and 1 (2×) and 0.9
  GGT: 2 (3×) and 3 (2×) and 6
  Globulin: 2.3 and 2.1 (2×) and 2.4 and 2.0 (2×)
  Magnesium: 1.8 (2×) and 1.6 and 1.7 (3×)
  Sodium: 147 and 146 (3×) and 149 and 148
  T.bili: 0.0 (4×) and 0.1 (2×)
  TP: 6.2 and 5.5 and 5.8 (2×) and 5.6 and 5.7
  Amylase: 467 and 362 and 561 and 514 and 451 and 707
  TIBC: 391 and 352 and 385 and 345 and 313 and 356
Healthy mixed-breed dogs [1]; [7]
  Cholesterol: 174 and 180 and 226 and 129 and 127 and 173
  Glucose: 58 and 39 and 93 and 100 and 85 and 52
  Phosphate: 3.9 and 3.7 and 3.3 and 4.4 and 3.6 and 4.1
Healthy mixed-breed dogs [1]; +24h after IV apixaban, in mmol/L (unit assumed)
  Potassium: 4.5 and 4.2 and 4.4 and 4.3
Healthy mixed-breed dogs [1]; +30h after PO apixaban
  ALT: 26 (2×) and 33 and 36 and 39 and 35
  AST: 34 and 22 and 32 (2×) and 45 and 33
  Albumin: 3.9 and 3.6 (2×) and 3.4 and 3.5 (2×)
  BUN: 19 (2×) and 12 and 10 and 18 and 24
  Calcium: 10.2 (2×) and 9.7 (3×) and 9.8
  Creatinine: 0.9 and 0.8 (2×) and 0.6 and 0.7 and 1
  GGT: 0 (2×) and 4 (2×) and 6 (2×)
  Globulin: 2.1 (3×) and 2.5 and 2 and 2.3
  Magnesium: 1.7 (5×) and 1.8
  Phosphate: 2.8 and 3.9 (2×) and 3.7 (2×) and 3.8
  Sodium: 147 (4×) and 150 and 146
  T.bili: 0.1 (4×) and 0.0 (2×)
  Amylase: 469 and 325 and 515 and 494 and 353 and 638
  TIBC: 391 and 331 and 372 and 288 and 336 and 329
Healthy mixed-breed dogs [1]; +30h after PO apixaban, in g/dL (unit assumed)
  TP: 6 and 5.7 and 6.1 and 5.4 and 5.8 and 5.6
Healthy mixed-breed dogs [1]; [8]
  Cholesterol: 198 and 192 and 244 and 106 and 162 and 186
  Glucose: 77 and 93 and 76 and 78 and 102 and 87
Healthy mixed-breed dogs [1]; [9]
  Bicarbonate: 22 and 20 and 17 and 18 and 14 and 19
  Potassium: 4.3 and 4.5 and 3.9 and 4.9 and 4.6 and 4.8
Healthy mixed-breed dogs [1]; IV
  chloride and GGT, baseline versus 24 h post-injection: statistically significant reductions
Healthy mixed-breed dogs [1]; PO, baseline versus 30 h post-dose
  biochemical parameters: no changes
[2]; oral
  plasma concentrations after oral administration: did not lead to quantifiable apixaban concentrations in plasma
[2]; single injection
  time by which concentrations declined below the lower limit of quantitation: ≤ 8 h
[2]
  half-life: 1.3 h
  protein binding: highly protein bound
[3]; IV 0.18 mg/kg, at mean plasma concentration […]
  mean aXa activity following intravenous injection: 650 ng/mL
[3]; IV, mean dose 0.18 mg/kg, model E=(Emax x C)/(C+EC50)
  Emax (anti-Xa activity): 1400.5 ng/mL
[3]; PO 0.2 mg/kg
  mean aXa activity compared with human values: remained below values typically observed for human moderate to high dose anticoagulant effect
[3]; PO 0.2 mg/kg, 6 h post-dosing
  aXa corresponding to the mean maximum observed plasma concentration: 128 ng/mL
[3]; following oral administration 0.2 mg/kg
  time of peak aXa activity: approximately 5 h
[4]
  protein-bound: over 90%
[4]; dogs, 0.5 mg/kg IV or PO
  time to maximal plasma concentrations: 2.8 h
[4]; dogs, 0.5 mg/kg, liquid formulation with methylcellulose and polysorbate 80
  oral bioavailability: 80%
[4]; dogs, Thromboplastin C-Plus reagent
  standard PT: not the standard PT
[4]; dogs
  factor Xa-dependent clotting time test (HEPTEST): prolonged
Prothrombin time
  concentration required to double the prothrombin time: 3,079 ng/ml and 6.7 μM
[5]; following oral administration
  time of peak aXa activity: 4 h
[5]; intravenously administered apixaban
  half-life: 1.13 h
[5]; oral apixaban
  half-life: 3.3 h
[5]; oral
  bioavailability: 85.5%
Healthy mixed-breed dogs [6]
  adverse reactions, including signs of abnormal bleeding or bruising: no adverse reactions
